In patent US11746139B2, “IL-7Rαγc binding compounds” (MEDIKINE, INC., priority 2020, dated 2023):

Assays:
Rγc subunit = molecular target: T1, Rγc subunit (Homo sapiens, UniProt P31785); assay: Alanine scan competition binding assay, binding to Rγc subunit; settings: alanine scan peptides
T1 construct: purchased ACRObiosystems, Inc. ILG-H5256

IL-7Rα subunit [1] = molecular target: T2, IL-7Rα subunit (Homo sapiens, UniProt P16871); assay: Phage competitive binding assay characterizing the IL-7Rα ligand binding site
IL-7Rα subunit [2] = molecular target: T2, IL-7Rα subunit; assay: Competition of IL-7Rα ligands with IL-7 for binding to IL-7Rα
IL-7Rα = IL-7Rα (Homo sapiens, UniProt P16871); assay: Competition binding ELISA with bn407::NA-HRP precomplex; settings: bn407:NA-HRP 10 nM final; read-out: Competitive Binding ELISA bn407:NA-HRP (10 nMf) IC50 M
Sequence of IL-7Rα (P16871 21-236): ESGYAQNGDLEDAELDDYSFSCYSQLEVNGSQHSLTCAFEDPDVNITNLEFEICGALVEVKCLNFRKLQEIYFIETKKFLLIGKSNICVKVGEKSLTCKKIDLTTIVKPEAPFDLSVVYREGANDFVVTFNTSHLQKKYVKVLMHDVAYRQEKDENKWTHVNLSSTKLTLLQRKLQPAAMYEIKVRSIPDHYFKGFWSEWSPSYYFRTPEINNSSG

T1 sequence (P31785 23-254): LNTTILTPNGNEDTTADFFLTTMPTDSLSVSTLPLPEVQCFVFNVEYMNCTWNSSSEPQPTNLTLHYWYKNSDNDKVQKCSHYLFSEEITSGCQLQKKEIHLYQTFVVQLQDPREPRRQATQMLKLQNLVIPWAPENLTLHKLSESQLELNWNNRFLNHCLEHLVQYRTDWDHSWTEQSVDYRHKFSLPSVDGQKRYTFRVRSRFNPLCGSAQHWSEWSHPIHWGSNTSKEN
T2 sequence (P16871 21-236): as the sequence (P16871 21-236) above

Compound | IC50 (Rγc subunit) [nM] | IC50 (IL-7Rα) [nM] | other results
CC(C)C[C@@H]1NC(=O)[C@H](CCC(=O)O)NC(=O)[C@H](C(C)C)NC(=O)CNC(=O)[C@H](CCC(=O)O)NC(=O)[C@H](Cc2c[nH]c3ccccc23)NC(=O)[C@H](CC(=O)O)NC(=O)[C@H](CCC(N)=O)NC(=O)[C@@H](NC(=O)[C@@H](NC(=O)[C@@H](NC(=O)CNC(=O)CN)C(C)C)C(C)C)CSSC[C@@H](C(=O)N[C@@H](Cc2c[nH]c3ccccc23)C(=O)N[C@@H](CCC(N)=O)C(=O)NCC(=O)NCC(=O)O)NC1=O [SEQ ID NO: 1031, G G V V C Q D W E G V E L C W Q G G] | < 50 | – | –
V Y C A E I G E Y R V C R Q [SEQ ID NO: 43] | – | – | Competition with Phage Clone SEQ ID NO: 5 (Family 1) for binding to the IL-7Rα subunit (IL-7Rα subunit [1]; phage clone 5, immobilized IL-7Rα ECD): + (IL-7Rα ligand competes with phage binding.); Competition with Phage Clone SEQ ID NO: 43 (Family 3A) for binding to the IL-7Rα subunit (IL-7Rα subunit [1]; phage clone 43, immobilized IL-7Rα ECD): + (IL-7Rα ligand competes with phage binding.); Competition with Phage Clone SEQ ID NO: 104 (Family 3B) for binding to the IL-7Rα subunit (IL-7Rα subunit [1]; phage clone 104, immobilized IL-7Rα ECD): + (IL-7Rα ligand competes with phage binding.); Competition with Phage Clone SEQ ID NO: 313 (Family 2) for binding to the IL-7Rα subunit (IL-7Rα subunit [1]; phage clone 313, immobilized IL-7Rα ECD): + (IL-7Rα ligand competes with phage binding.); Competitive binding with IL-7 binding to IL-7Rα (IL-7Rα subunit [2]): do not bind competitively
CC(C)C[C@@H]1NC(=O)[C@H](CCC(=O)O)NC(=O)[C@H](C(C)C)NC(=O)CNC(=O)[C@H](CCC(=O)O)NC(=O)[C@H](Cc2c[nH]c3ccccc23)NC(=O)[C@H](CC(=O)O)NC(=O)[C@H](C)NC(=O)[C@@H](NC(=O)[C@@H](NC(=O)[C@@H](NC(=O)CNC(=O)CN)C(C)C)C(C)C)CSSC[C@@H](C(=O)N[C@@H](Cc2c[nH]c3ccccc23)C(=O)N[C@@H](CCC(N)=O)C(=O)NCC(=O)NCC(=O)O)NC1=O [SEQ ID NO: 1032, G G V V C A D W E G V E L C W Q G G] | < 100 | – | –
CC[C@H](C)[C@H](N)C(=O)N1CCC[C@H]1C(=O)N[C@@H](Cc1c[nH]c2ccccc12)C(=O)N[C@H]1CSSC[C@@H](C(=O)N[C@@H](C)C(=O)N[C@@H](C)C(=O)N[C@@H](CC(C)C)C(=O)N[C@@H](CCCNC(=N)N)C(=O)N[C@@H](CCC(N)=O)C(=O)N[C@@H](CCSC)C(=O)NCC(=O)NCC(=O)O)NC(=O)[C@H](CCC(N)=O)NC(=O)[C@H](CC(C)C)NC(=O)CNC(=O)CNC(=O)[C@@H]2CCCN2C(=O)[C@H](CC(=O)O)NC(=O)[C@H](CC(C)C)NC(=O)[C@H]([C@@H](C)O)NC1=O [SEQ ID NO: 421, I P W C T L D P G G L Q C A A L R Q M] | – | 7580 | –
CC[C@H](C)[C@H](N)C(=O)N1CCC[C@H]1C(=O)N[C@@H](Cc1c[nH]c2ccccc12)C(=O)N[C@H]1CSSC[C@@H](C(=O)N[C@@H](C)C(=O)N[C@@H](Cc2c[nH]c3ccccc23)C(=O)N[C@@H](CC(C)C)C(=O)N[C@@H](CCCNC(=N)N)C(=O)N[C@@H](C)C(=O)N[C@@H](CCSC)C(=O)NCC(=O)NCC(=O)O)NC(=O)[C@H](CCC(N)=O)NC(=O)[C@H](CC(C)C)NC(=O)CNC(=O)CNC(=O)[C@@H]2CCCN2C(=O)[C@H](CC(=O)O)NC(=O)[C@H](CC(C)C)NC(=O)[C@H]([C@@H](C)O)NC1=O [SEQ ID NO: 431, I P W C T L D P G G L Q C A W L R A M] | – | 521 | –
CC[C@H](C)[C@H](N)C(=O)N1CCC[C@H]1C(=O)N[C@@H](Cc1c[nH]c2ccccc12)C(=O)N[C@H]1CSSC[C@@H](C(=O)N[C@@H](C)C(=O)N[C@@H](Cc2c[nH]c3ccccc23)C(=O)N[C@@H](CC(C)C)C(=O)N[C@@H](CCCNC(=N)N)C(=O)N[C@@H](C)C(=O)N[C@@H](C)C(=O)NCC(=O)NCC(=O)O)NC(=O)[C@H](CCC(N)=O)NC(=O)[C@H](CC(C)C)NC(=O)CNC(=O)CNC(=O)[C@@H]2CCCN2C(=O)[C@H](CC(=O)O)NC(=O)[C@H](CC(C)C)NC(=O)[C@H]([C@@H](C)O)NC1=O [SEQ ID NO: 433, I P W C T L D P G G L Q C A W L R A A] | – | 1070 | –
CC[C@H](C)[C@H](N)C(=O)N1CCC[C@H]1C(=O)N[C@@H](Cc1c[nH]c2ccccc12)C(=O)N[C@H]1CSSC[C@@H](C(=O)N[C@@H](C)C(=O)N[C@@H](Cc2c[nH]c3ccccc23)C(=O)N[C@@H](CC(C)C)C(=O)N[C@@H](C)C(=O)N[C@@H](C)C(=O)N[C@@H](C)C(=O)NCC(=O)NCC(=O)O)NC(=O)[C@H](CCC(N)=O)NC(=O)[C@H](CC(C)C)NC(=O)CNC(=O)CNC(=O)[C@@H]2CCCN2C(=O)[C@H](CC(=O)O)NC(=O)[C@H](CC(C)C)NC(=O)[C@H]([C@@H](C)O)NC1=O [SEQ ID NO: 434, I P W C T L D P G G L Q C A W L A A A] | – | 602 | –
CC(C)C[C@@H]1NC(=O)[C@H](CCC(=O)O)NC(=O)[C@H](C(C)C)NC(=O)CNC(=O)[C@H](CCC(=O)O)NC(=O)[C@H](Cc2c[nH]c3ccccc23)NC(=O)[C@H](C)NC(=O)[C@H](CCC(N)=O)NC(=O)[C@@H](NC(=O)[C@@H](NC(=O)[C@@H](NC(=O)CNC(=O)CN)C(C)C)C(C)C)CSSC[C@@H](C(=O)N[C@@H](Cc2c[nH]c3ccccc23)C(=O)N[C@@H](CCC(N)=O)C(=O)NCC(=O)NCC(=O)O)NC1=O [SEQ ID NO: 1033, G G V V C Q A W E G V E L C W Q G G] | < 50 | – | –
CC[C@H](C)[C@H](N)C(=O)N1CCC[C@H]1C(=O)N[C@@H](Cc1c[nH]c2ccccc12)C(=O)N[C@H]1CSSC[C@@H](C(=O)N[C@@H](C)C(=O)N[C@@H](Cc2c[nH]c3ccccc23)C(=O)N[C@@H](CC(C)C)C(=O)N[C@@H](CCCCN)C(=O)N[C@@H](CCC(N)=O)C(=O)N[C@@H](CCSC)C(=O)NCC(=O)NCC(=O)O)NC(=O)[C@H](CCC(N)=O)NC(=O)[C@H](CC(C)C)NC(=O)CNC(=O)CNC(=O)[C@@H]2CCCN2C(=O)[C@H](CC(=O)O)NC(=O)[C@H](CC(C)C)NC(=O)[C@H]([C@@H](C)O)NC1=O [SEQ ID NO: 429, I P W C T L D P G G L Q C A W L K Q M] | – | 466 | –
CC[C@H](C)[C@H](N)C(=O)N1CCC[C@H]1C(=O)N[C@@H](Cc1c[nH]c2ccccc12)C(=O)N[C@H]1CSSC[C@@H](C(=O)N[C@@H](C)C(=O)N[C@@H](Cc2ccc(O)cc2)C(=O)N[C@@H](CC(C)C)C(=O)N[C@@H](CCCNC(=N)N)C(=O)N[C@@H](CCC(N)=O)C(=O)N[C@@H](CCSC)C(=O)NCC(=O)NCC(=O)O)NC(=O)[C@H](CCC(N)=O)NC(=O)[C@H](CC(C)C)NC(=O)CNC(=O)CNC(=O)[C@@H]2CCCN2C(=O)[C@H](CC(=O)O)NC(=O)[C@H](CC(C)C)NC(=O)[C@H]([C@@H](C)O)NC1=O [SEQ ID NO: 423, I P W C T L D P G G L Q C A Y L R Q M] | – | 664 | –

Second part, led by results:

IC50 (Rγc subunit) [nM] | IC50 (IL-7Rα) [nM] | Compound | other results
< 100 | – | CC(C)C[C@@H]1NC(=O)[C@H](CCC(=O)O)NC(=O)[C@H](C(C)C)NC(=O)[C@H](C)NC(=O)[C@H](CCC(=O)O)NC(=O)[C@H](Cc2c[nH]c3ccccc23)NC(=O)[C@H](CC(=O)O)NC(=O)[C@H](CCC(N)=O)NC(=O)[C@@H](NC(=O)[C@@H](NC(=O)[C@@H](NC(=O)CNC(=O)CN)C(C)C)C(C)C)CSSC[C@@H](C(=O)N[C@@H](Cc2c[nH]c3ccccc23)C(=O)N[C@@H](CCC(N)=O)C(=O)NCC(=O)NCC(=O)O)NC1=O [SEQ ID NO: 1036, G G V V C Q D W E A V E L C W Q G G] | –
< 2000 | – | CC(C)C[C@@H]1NC(=O)[C@H](CCC(=O)O)NC(=O)[C@H](C)NC(=O)CNC(=O)[C@H](CCC(=O)O)NC(=O)[C@H](Cc2c[nH]c3ccccc23)NC(=O)[C@H](CC(=O)O)NC(=O)[C@H](CCC(N)=O)NC(=O)[C@@H](NC(=O)[C@@H](NC(=O)[C@@H](NC(=O)CNC(=O)CN)C(C)C)C(C)C)CSSC[C@@H](C(=O)N[C@@H](Cc2c[nH]c3ccccc23)C(=O)N[C@@H](CCC(N)=O)C(=O)NCC(=O)NCC(=O)O)NC1=O [SEQ ID NO: 1037, G G V V C Q D W E G A E L C W Q G G] | –
< 50 | – | CC(C)C[C@@H]1NC(=O)[C@H](CCC(=O)O)NC(=O)[C@H](C(C)C)NC(=O)CNC(=O)[C@H](C)NC(=O)[C@H](Cc2c[nH]c3ccccc23)NC(=O)[C@H](CC(=O)O)NC(=O)[C@H](CCC(N)=O)NC(=O)[C@@H](NC(=O)[C@@H](NC(=O)[C@@H](NC(=O)CNC(=O)CN)C(C)C)C(C)C)CSSC[C@@H](C(=O)N[C@@H](Cc2c[nH]c3ccccc23)C(=O)N[C@@H](CCC(N)=O)C(=O)NCC(=O)NCC(=O)O)NC1=O [SEQ ID NO: 1035, G G V V C Q D W A G V E L C W Q G G] | –
< 50 | – | CC(C)C[C@@H]1NC(=O)[C@H](C)NC(=O)[C@H](C(C)C)NC(=O)CNC(=O)[C@H](CCC(=O)O)NC(=O)[C@H](Cc2c[nH]c3ccccc23)NC(=O)[C@H](CC(=O)O)NC(=O)[C@H](CCC(N)=O)NC(=O)[C@@H](NC(=O)[C@@H](NC(=O)[C@@H](NC(=O)CNC(=O)CN)C(C)C)C(C)C)CSSC[C@@H](C(=O)N[C@@H](Cc2c[nH]c3ccccc23)C(=O)N[C@@H](CCC(N)=O)C(=O)NCC(=O)NCC(=O)O)NC1=O [SEQ ID NO: 1038, G G V V C Q D W E G V A L C W Q G G] | –
< 5000 | – | CC(C)[C@@H]1NC(=O)CNC(=O)[C@H](CCC(=O)O)NC(=O)[C@H](Cc2c[nH]c3ccccc23)NC(=O)[C@H](CC(=O)O)NC(=O)[C@H](CCC(N)=O)NC(=O)[C@@H](NC(=O)[C@@H](NC(=O)[C@@H](NC(=O)CNC(=O)CN)C(C)C)C(C)C)CSSC[C@@H](C(=O)N[C@@H](Cc2c[nH]c3ccccc23)C(=O)N[C@@H](CCC(N)=O)C(=O)NCC(=O)NCC(=O)O)NC(=O)[C@H](C)NC(=O)[C@H](CCC(=O)O)NC1=O [SEQ ID NO: 1039, G G V V C Q D W E G V E A C W Q G G] | –
< 2000 | – | CC(C)C[C@@H]1NC(=O)[C@H](CCC(=O)O)NC(=O)[C@H](C(C)C)NC(=O)CNC(=O)[C@H](CCC(=O)O)NC(=O)[C@H](C)NC(=O)[C@H](CC(=O)O)NC(=O)[C@H](CCC(N)=O)NC(=O)[C@@H](NC(=O)[C@@H](NC(=O)[C@@H](NC(=O)CNC(=O)CN)C(C)C)C(C)C)CSSC[C@@H](C(=O)N[C@@H](Cc2c[nH]c3ccccc23)C(=O)N[C@@H](CCC(N)=O)C(=O)NCC(=O)NCC(=O)O)NC1=O [SEQ ID NO: 1034, G G V V C Q D A E G V E L C W Q G G] | –
